Reference: ChEMBL document CHEMBL1149409, “Inhibition of GABA shunt enzymes' activity by 4-hydroxybenzaldehyde derivatives” (Bioorg Med Chem Lett, 2006)

How the values were obtained:
[1] = molecular target: 4-aminobutyrate aminotransferase, mitochondrial (Homo sapiens, UniProt P80404); assay: Inhibitory activity against GABAT
[2] = molecular target: T1, Succinate-semialdehyde dehydrogenase, mitochondrial (Homo sapiens, UniProt P51649); assay: Inhibitory activity against SSADH
T1 sequence (P51649 whole entry): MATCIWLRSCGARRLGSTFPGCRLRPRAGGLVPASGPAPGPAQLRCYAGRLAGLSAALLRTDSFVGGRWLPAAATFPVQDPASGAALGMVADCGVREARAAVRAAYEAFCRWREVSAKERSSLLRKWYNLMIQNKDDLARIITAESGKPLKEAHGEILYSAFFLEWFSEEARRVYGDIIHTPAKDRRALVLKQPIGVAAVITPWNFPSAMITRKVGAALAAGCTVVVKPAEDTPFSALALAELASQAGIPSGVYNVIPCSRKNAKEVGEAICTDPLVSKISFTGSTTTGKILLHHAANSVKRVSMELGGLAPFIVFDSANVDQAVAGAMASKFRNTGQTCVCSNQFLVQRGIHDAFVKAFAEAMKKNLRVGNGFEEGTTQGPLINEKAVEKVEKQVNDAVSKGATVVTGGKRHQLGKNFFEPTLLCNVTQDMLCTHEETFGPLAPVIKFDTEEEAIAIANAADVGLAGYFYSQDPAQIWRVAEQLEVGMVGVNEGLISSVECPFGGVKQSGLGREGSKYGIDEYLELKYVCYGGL

Sequence of 4-aminobutyrate aminotransferase, mitochondrial (P80404 whole entry): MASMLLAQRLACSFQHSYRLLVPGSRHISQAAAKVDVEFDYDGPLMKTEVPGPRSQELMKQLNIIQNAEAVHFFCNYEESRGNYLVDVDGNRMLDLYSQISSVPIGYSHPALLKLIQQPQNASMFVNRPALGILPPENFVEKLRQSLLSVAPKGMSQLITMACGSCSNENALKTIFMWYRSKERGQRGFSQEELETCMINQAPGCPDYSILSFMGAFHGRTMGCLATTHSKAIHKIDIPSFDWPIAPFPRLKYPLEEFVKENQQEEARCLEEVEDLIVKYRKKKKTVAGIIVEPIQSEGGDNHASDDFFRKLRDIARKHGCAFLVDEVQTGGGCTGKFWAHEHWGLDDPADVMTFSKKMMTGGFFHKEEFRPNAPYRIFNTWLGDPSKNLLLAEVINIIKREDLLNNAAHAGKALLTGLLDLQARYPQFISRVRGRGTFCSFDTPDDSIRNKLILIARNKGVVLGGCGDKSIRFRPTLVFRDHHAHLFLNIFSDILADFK

Compound	IC50 [1] [µM]	IC50 [2] [µM]
OCc1ccc(O[C@@H]2O[C@H](CO)[C@@H](O)[C@H](O)[C@H]2O)cc1 [GASTRODIN]	> 1000	> 1000
COc1cc(/C=N/O)ccc1O	> 1000	> 1000
CCC(=O)c1ccc(O)cc1 [PAROXYPROPIONE]	176	293
COc1ccc(C=O)cc1 [ANISALDEHYDE]	> 1000	> 1000
OCc1ccc(O)cc1 [PARAHYDROXYBENZYL ALCOHOL]	> 1000	> 1000
O/N=C/c1ccc(O)cc1	> 1000	> 1000
O=Cc1ccc(O)cc1 [4-HYDROXYBENZALDEHYDE]	16.5	24.7
O=Cc1ccc(O[C@@H]2O[C@H](CO)[C@@H](O)[C@@H](O)[C@H]2O)cc1 [HELICIDE]	> 1000	> 1000
COc1cc(C=O)ccc1O [VANILLIN]	17.1	15.6
CC(=O)c1ccc(O)cc1 [4-HYDROXYACETOPHENONE]	188	166
C=CC(=O)c1ccc(O)cc1	5.48	0.35
O=C(O)c1ccc(O)cc1 [PARABEN]	> 1000	> 1000
O=Cc1ccc(O)c([N+](=O)[O-])c1	15.5	33.1
NCc1ccc(O)cc1	15.4	> 1000
Nc1ccc(C(=O)O)cc1 [AMINOBENZOIC ACID]	> 1000	> 1000
